Assay results taken from patent publication EP4129319A1, “PORE-FORMING ANTIMICROBIAL PEPTIDES” (priority 2021, dated 2023).
Like-named read-outs stand apart in the source and are kept apart here. Ends that are not written are not given here.

Columns and labels:
[1] = Calcein leakage assay; assay type: biochemical; conditions: for Extent of leakage (in percentage) at increasing peptide-to-lipid ratio (mol/mol) 1:10 / Extent of leakage (in percentage) at increasing peptide-to-lipid ratio (mol/mol) 1:20 / Extent of leakage (in percentage) at increasing peptide-to-lipid ratio (mol/mol) 1:50 / Extent of leakage (in percentage) at increasing peptide-to-lipid ratio (mol/mol) 1:100: calcein leakage, POPC:POPG (1:1 mol/mol) LUVs; for Extent of leakage (in percentage) at increasing peptide-to-lipid ratio (mol/mol) 1:10: peptide-to-lipid ratio 1:10 (mol/mol); for Extent of leakage (in percentage) at increasing peptide-to-lipid ratio (mol/mol) 1:20: peptide-to-lipid ratio 1:20 (mol/mol); for Extent of leakage (in percentage) at increasing peptide-to-lipid ratio (mol/mol) 1:50: peptide-to-lipid ratio 1:50 (mol/mol); for Extent of leakage (in percentage) at increasing peptide-to-lipid ratio (mol/mol) 1:100: peptide-to-lipid ratio 1:100 (mol/mol); for calcein / vesicle leakage, pore-forming ability (in words): POPC:POPG (1:1) LUVs
Protocol: (§1) Chemicals. […] (Prague, Czech Republic), and Caslo ApS (Kongens Lyngby, Denmark). […] The bacterial stock was stored at -80°C.
Calcein leakage assay. Pore-forming activity of the peptides was tested by their ability to leak the self-quenching fluorescent dye calcein entrapped within POPC:POPG (1:1 mol/mol) large unilamellar vesicles (LUVs). After mixing DiD to the lipid mixture (in the ratio 1:500 mol/mol), a thin lipid film was created by evaporating of the chloroform, traces of which were removed by desiccating overnight. The lipid film was then dissolved in calcein buffer, followed by vigorous vortexing. The lipid suspension was subsequently subjected to 10 freeze-thaw cycles. To obtain uniform LUVs, the sample was passed 50 times back and forth through an extruder stacked with 100 nm pore size polycarbonate membrane filter. Afterwards, the untrapped calcein was removed on a HiTrap Desalting Column (with Sephadex G-25 Superfine resin) by washing with PBS buffer. The concentration of the lipid suspension was then adjusted to 0.02 mM. The concentration of the peptide solution was 0.1 mM. The inventors monitored the peptide-induced release of calcein from LUVs by the increase in fluorescence intensity after adding increasing amounts of peptides to the LUVs under constant stirring at 25 °C. The investigated range of peptide/lipid molecular ratio was from 1:100 to 1:10. The excitation and emission wavelengths were set to 495 nm and 520 nm, respectively. Maximum fluorescence intensity was obtained by disrupting all the vesicles in the end by adding 10% Triton X-100. Experiments were performed in triplicates with independently prepared lipid vesicles.

[2] = test system: Gram-negative Escherichia coli TOP10 strain; assay type: cell-based; conditions: for Antibacterial activity (MIC in µM) E. coli TOP10: broth microdilution assay
Protocol: as §1
(§2) Broth microdilution assay. Antimicrobial activity of the peptides was investigated against Gram-negative Escherichia coli TOP10 strain and Gram-positive Staphylococcus carnosus CCM 4838T using broth microdilution assay, based on which the inventors determined the bacterial minimum inhibition concentration (MIC). After cross streaking with bacteria, the petri dishes (with MHA) were incubated for 24 h at 37 °C. Overnight grown cultures were then sub-cultured for 4-6 h at 37 °C in test tubes containing MHB. The sub-cultured solutions were subsequently diluted to a standard concentration of 10^6 colony forming units (CFU) per mL. Cell counts were determined by measuring the optical density at 600 nm. In a flat-bottomed 96 well plate, the inventors prepared a dilution series for the peptides and for the reference antibiotic ampicillin from 50 to 0.1 µM concentration, which was then inoculated with bacteria and incubated for 24 h at 37 °C. Growth control wells were free from peptides or ampicillin to show the viability of the bacteria, and sterility control wells were free from bacterial inoculation to verify the sterility of the medium. The bacterial growth was visually evaluated based on the turbidity. MIC was determined as the lowest concentrated well where no visible bacterial growth was observed. To test the bacteriostatic or bacteriocidal activity of the peptides, 50 µl solution from the highest concentrated well (i.e., 50 µM) was transferred to a test tube containing 4 mL sterile MHB and incubated for 24 h at 37 °C under constant stirring. Streaking of the same solution was done on MHA containing petri dishes and incubated for 24 h at 37 °C to confirm the morphology of the colonies grown. Experiments were performed in triplicates.

[3] = test system: Gram-positive Staphylococcus carnosus CCM 4838T; assay type: cell-based; conditions: for MIC against S. carnosus: 24 h at 37 °C, dilution series 50 to 0.1 µM; for times higher MIC than that of ampicillin, S. carnosus: ratio to ampicillin
Protocol: as §1, §2

[4] = test system: human red blood cells (HRBCs); assay type: cell-based
Protocol: as §1
Hemolysis assay. Hemolytic toxicity of the peptides was evaluated from their ability to lyse the fresh human red blood cells (HRBCs) collected from the University Hospital (Brno, Czech Republic). To obtain the erythrocyte pellets, the blood samples were centrifuged twice at 700×g and subsequently, once at 1000×g, each for 8 min. at 4 °C, which was followed by thorough washing with PBS. Resuspension of the pellets was done in PBS to obtain 0.5% (vol/vol) RBC suspension. In a well plate with 96 V-shaped bottom wells, the peptides were added in a dilution series from 0.1 to 50 µM concentration. Subsequently, HRBC suspension was added in each well. Negative control wells contained only PBS and HRBC suspension without any peptide (i.e., 0% lysis), and positive control wells included 5 µM melittin in the HRBC suspension. After incubation for 1 h at 37 °C, the well plates were centrifuged at 1000×g for 10 min. at 4 °C. Subsequently, the supernatant was collected in a flat-bottomed well plate and the optical density of the released hemoglobin was measured for each well at 415 nm wavelength. The calculated absorbances from the wells were then normalized against the averaged absorbances of the positive and the negative control wells. EC50 value was calculated from the normalized absorbances indicating 50% hemolysis of HRBCs. Experiments were performed in triplicates with three independent blood samples.

[5] = test system: human dermal fibroblast (HDF) cell lines; test: Neutral red uptake assay (cytotoxicity); assay type: cell-based
Protocol: Neutral red uptake assay. To evaluate the cytotoxicity of the peptides against human dermal fibroblast (HDF) cell lines, the inventors purchased the neutral red uptake assay from Essence Line (Praha, Czech Republic). The initial cell culture was sub-cultured in supplemented Dulbecco's Modified Eagle Medium (DMEM) and diluted to a cell density of 1 × 10^5 cells/mL. The diluted culture was then seeded into the wells (1 × 10^4

[6] = test system: Acinetobacter baumanni GSAB 164; assay type: cell-based; conditions: ESKAPE panel; strain not given, ampicillin > 16 fits the 16-to-0.03 µM series of Evotec
Protocol: as §2
(§3) The antimicrobial susceptibility test of the most promising peptide against the recalcitrant ESKAPE pathogens was purchased from Evotec (Macclesfield, UK) for the following strains: Enterococcus faecium ATCC 700221, Staphylococcus aureus NRS 1, Klebsiella pneumoniae ATCC 700603, Acinetobacter baumanni GSAB 164, Pseudomonas aeruginosa ATCC 13437, Escherichia coli ATCC 25922 and Enterobacter aerogenes B207A, and was purchased from Essence Line (Praha, Czech Republic) against the following strains: Enterococcus faecium ATCC 29212, Enterococcus hirae ATCC 10541, Staphylococcus aureus ATCC 6538, ATCC 29213, Methicillin-resistant Staphylococcus aureus (MRSA) CNCTC 7452, Klebsiella pneumoniae ATCC 10031, Acinetobacter baumanni ATCC 19606, Pseudomonas aeruginosa ATCC 15442 and Escherichia coli ATCC 10536 and ATCC 35218. […]

[7] = test system: Enterococcus faecium ATCC 700221; assay type: cell-based; conditions: ESKAPE panel; strain not given, ampicillin > 16 fits the 16-to-0.03 µM series of Evotec
Protocol: as §2, §3

[8] = test system: Escherichia coli ATCC 25922; assay type: cell-based; conditions: strain not given, assigned to the Evotec series
Protocol: as §2, §3

[9] = test system: Klebsiella pneumoniae ATCC 700603; assay type: cell-based; conditions: ESKAPE panel; strain not given, ampicillin > 16 fits the 16-to-0.03 µM series of Evotec
Protocol: as §2, §3

[10] = hemolysis assay, HRBCs, read-out: Toxicity (EC50 in µM) HRBCs

Substance	Extent of leakage (in percentage) at increasing peptide-to-lipid ratio (mol/mol) 1:20 [1] [percentage]	Extent of leakage (in percentage) at increasing peptide-to-lipid ratio (mol/mol) 1:50 [1] [percentage]	Extent of leakage (in percentage) at increasing peptide-to-lipid ratio (mol/mol) 1:100 [1] [percentage]	Antibacterial activity (MIC in µM) E. coli TOP10 [2] [µM]	EC50 [4] [µM]	EC50 [4, 10] [µM]	Antibacterial activity (MIC in µM) S. carnosus ([3]; CCM 4838) [µM]	EC50 [5] [µM]	other results
KKKKLKKFFKKLIQLINQLFDDLDDFKKKK-NH2 [KDFD24+9-NH2]	81.5 ± 6.8	42.6 ± 11.5	13.0 ± 5.2	12.5	> 50	–	–	–	Extent of leakage (in percentage) at increasing peptide-to-lipid ratio (mol/mol) 1:10 [1]: 98.7 ± 3.2 percentage; Antibacterial activity (MIC in µM) S. carnosus ([3]; broth microdilution assay, S. carnosus): 12.5 µM
KKKKLKKILKKLFQFIDQLDNDLQDIKKKK (not fully specified (C-terminus)) [KDFC16+9-NH2, group C peptide, net charge +9 e; 89]	98.3 ± 5.2	97.4 ± 9.3	78.2 ± 4.5	0.8	–	> 50	–	–	Extent of leakage (in percentage) at increasing peptide-to-lipid ratio (mol/mol) 1:10 [1]: 99.28 ± 1.2 percentage; MIC against E. coli ([2]; 24 h at 37 °C, dilution series 50 to 0.1 µM): 0.8 µM; times lower MIC than the MIC of ampicillin, E. coli ([2]; ratio to ampicillin): 15; MIC against S. carnosus [3]: 0.4 µM; times higher MIC than that of ampicillin, S. carnosus [3]: 4; EC50 ([5]; HDFs, column stands under the head 'Hemolysis assay', read-out: Toxicity (EC50 in µM) HDFs): 10 µM
KKKKLKKILKKLFQFIDQLINDLQNIKKKK-NH2 [KDFA5+11-NH2]	101.6 ± 1.4	78.0 ± 4.3	38.6 ± 3.5	1.6	–	> 50	1.6	–	–
KKKKLKKILKKLFQFINQLDNQLQDIKKKK-NH2 [KDFA2i+11-NH2]	–	–	–	0.2	–	> 50	0.2	–	MIC against A. baumannii [6]: 1.4 µM; MIC against E. faecium [7]: 1.9 µM; MIC against E. coli (ESKAPE panel) [8]: 1.4 µM; MIC against K. pneumoniae [9]: 3.8 µM
KKKKLKKILKKLFQFINQLDNQLQDIKQNK-NH2 [KDFA2i+9-NH2]	–	–	–	0.8	–	> 50	0.8	97	–
KKKKLKKILKKLFQFINQLIDDLDDIKKKK-NH2 [KDFC21+9-NH2]	99.4 ± 1.6	78.2 ± 1.2	–	3.1	> 50	–	3.1	–	Extent of leakage (in percentage) at increasing peptide-to-lipid ratio (mol/mol) 1:10 [1]: 102.2 ± 1.1 percentage
KKKKLRRILRRLFQFINQLDNQLQDIKQNK-NH2 [RDFA2i+9-NH2-Kter]	–	100.7 ± 1.0	76.0 ± 3.3	0.2	–	49	0.4	–	antimicrobial activity against S. carnosus (in words) [3]: more effective against S. carnosus
KKKKVKKVVKKVFSFVDSVDSDVSDVKKKK-NH2 [KDFC16+9SV-NH2]	–	–	–	25	> 50	–	–	> 150	calcein / vesicle leakage, pore-forming ability (in words) [1]: did not cause calcein leakage; MIC against S. carnosus [3]: 0.4 µM; times higher MIC than that of ampicillin, S. carnosus [3]: 4
KQKKLKKFFNQLIQLINQLFNQLDDFNQNK [KDFB12]	101.5 ± 0.6	98.2 ± 0.7	79.4 ± 3.7	6.3	> 50	–	6.3	20	–
NQKKLQNILNKLFKFIDDLINQLQNIKKQN [KDFA9]	102.0 ± 1.4	92.0 ± 0.3	62.6 ± 5.2	> 50	> 50	–	> 50	–	calcein / vesicle leakage, pore-forming ability (in words) [1]: retained
RRRRLKKILKKLFQFINQLDNQLQDIRQNR-NH2 [KDFA2i+9-NH2-Rter]	103.3 ± 1.2	98.8 ± 1.2	65.5 ± 4.2	0.4	–	6.9	0.8	–	–
RRRRLRRILRRLFQFINQLDNQLQDIRQNR-NH2 [RDFA2i+9-NH2]	–	101.1 ± 0.8	65.8 ± 4.1	1.6	0.9	–	0.8	16	EC50 ([4]; 1 h): 0.9 µM
